# Assay results reported in US12116424B2, “Compounds and compositions for modulating Listeria virulence” (priority 2021, dated 2024).
# Where a SMILES comes first, the peptide text is derived from it. Bridges are numbered along the chain shown (N, C = ends). [ ]: non-standard residue; d: D form. dDap = NC[C@@H](N)C(=O)O; Dap = NC[C@H](N)C(=O)O
# Biological target: L. monocytogenes AgrC (Listeria monocytogenes serovar 1/2a, UniProt Q8YAR5)
# Test: Fluorescence (agr-GFP) reporter agonism assay, ΔagrD reporter strain
# Assay type: cell-based
# Design: Emax: dose or concentration left out as unconfirmed
# Settings: for Emax: read-out: Max Activation Observed; for agonism activity (in words): ΔagrD reporter; for loss in potency: agonism, relative to native AIP
# Source text: Construction of Listeria agr Reporter Strains. A gene block was designed and purchased from Integrated DNA Technologies to contain an EagI recognition site, the PII promoter of the agr system, the 3′ UTR of hly, super folder GFP, and a SaII recognition site. The gene block was digested with EagI and SaII, cloned into an EagI/SaII-cut pAM401 plasmid resulting in the plasmid pAM401-KW1, and then transformed into E. coli XL1-Blue competent cells. The insertion into pAM401 was confirmed using Kapa polymerase and primers DAP337 and DAP338, and additional confirmation via commercial sequencing. Purified plasmid was transformed into the conjugative E. coli S17 strain, which was used to conjugate to EGD-e and EGD-e ΔagrD to generate the agr-GFP reporter strains EGD-e:pAM401-KW1 and EGD-e ΔagrD:pAM401-KW1. Conjugation was verified using primers DAP337 and DAP338.
# Fluorescence reporter assay protocol. For QS (agr) reporter assays, peptide stock solutions in DMSO (1 mM) were serially diluted in DMSO, and 2 μL of solution was added to each well in a black 96-well plate (polystyrene microtiter plate, Costar). Agonism assays utilized the ΔagrD reporter strain, with 2 μL of 100 μM AIP (final concentration 1 μM) as a positive control and 2 μL of DMSO as a negative control. Antagonism assays utilized the EGD-e reporter strain, with 2 μL of DMSO as a positive control. In both assays, wells containing only BHI media served as negative controls for normalization. An overnight culture of bacteria was diluted 1:50 in fresh BHI, then 198 μL were transferred to each well (excluding the media control wells). Plates were then incubated at 37° C. for 24 hours with shaking at 200 rpm. Fluorescence of GFP (excitation at 500 nm, emission at 540 nm) and OD600 of each well was measured using BioTek Synergy 2 plate reader. Measurements were processed by subtracting background fluorescence (BHI media), correcting by OD600, and the normalizing using the 1 μM AIP or the DMSO control for the agonism and antagonism assays, respectively. Non-linear regression curves were fitted to the data sets in GraphPad Prism 7 by using variable slope (four-parameter) dose-response analysis to obtain potency, efficacy, and statistical information about the activity of tested peptides. Each peptide was tested with three technical replicates and three biological replicates. All data derived from fluorescent reporter strains are represented with data points signifying the mean and error bars signifying the standard deviation from all replicates.
# Preparation and Validation of Listeria agr Reporter Strains. In order to facilitate profiling the native AIP and its analogs for agr activity, L. monocytogenes agr GFP reporters were designed and constructed as described above (see Materials and General Methods). Briefly, a plasmid containing the agr promoter region upstream of gfp was transformed into wild-type (EGD-e) and ΔagrD L. monocytogenes strains. The wild-type reporter naturally produces its own AIP and is able to activate AgrC, which may subsequently phosphorylate AgrA for productive binding to DNA and triggering the production of GFP (FIG. 1A). The ΔagrD reporter, lacking the ability to produce its own AIP and thereby activate AgrC, is unable to trigger substantial production of GFP. However, adding exogenous AIP to the ΔagrD reporter results in an increase of fluorescence, indicating agr activity has been restored.
# Chain of L. monocytogenes AgrC (Q8YAR5 entry or part of it): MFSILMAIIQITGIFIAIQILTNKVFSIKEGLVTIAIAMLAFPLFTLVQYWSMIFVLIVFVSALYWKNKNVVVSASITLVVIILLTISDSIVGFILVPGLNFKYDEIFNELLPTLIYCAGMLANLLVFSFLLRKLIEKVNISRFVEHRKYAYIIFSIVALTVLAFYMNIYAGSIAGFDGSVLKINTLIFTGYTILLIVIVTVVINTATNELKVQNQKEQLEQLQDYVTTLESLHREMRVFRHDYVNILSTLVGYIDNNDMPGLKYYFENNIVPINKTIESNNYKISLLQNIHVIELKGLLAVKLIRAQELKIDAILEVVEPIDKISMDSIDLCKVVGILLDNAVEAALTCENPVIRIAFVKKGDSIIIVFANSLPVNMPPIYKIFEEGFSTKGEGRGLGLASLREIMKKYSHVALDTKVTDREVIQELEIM
Compound,Emax [%],agonism activity (in words),loss in potency
"CSCC[C@@H]1NC(=O)[C@H](Cc2ccccc2)NC(=O)[C@@H](NC(=O)[C@H](CCCCN)NC(=O)[C@@H](N)CCCCN)CSC(=O)[C@H](C(C)C)NC(=O)[C@H](Cc2ccccc2)NC1=O [7-mer A2K, K-K-(C-F-M-F-V)] (H-KKCFMFV; thioester 3-C; N-terminus assumed)",64.8,–,–
"CSCC[C@@H]1NC(=O)[C@H](Cc2ccccc2)NC(=O)[C@H](NC(=O)[C@H](C)NC(=O)[C@@H](N)CCCCN)CSC(=O)[C@H](C(C)C)NC(=O)[C@H](Cc2ccccc2)NC1=O [7-mer C3dC, K-A-(dC-F-M-F-V)] (H-KA[dC]FMFV; thioester 3-C; N-terminus assumed)",7.08,–,–
"CSCC[C@H]1NC(=O)[C@H](Cc2ccccc2)NC(=O)[C@H](NC(=O)[C@H](C)NC(=O)[C@@H](N)CCCCN)CSC(=O)[C@H](C(C)C)NC(=O)[C@H](Cc2ccccc2)NC1=O [7-mer C3dC/M5dM, K-A-(dC-F-dM-F-V)] (H-KA[dC]F[dM]FV; thioester 3-C; N-terminus assumed)",7.89,–,–
"CSCC[C@H]1NC(=O)[C@H](Cc2ccccc2)NC(=O)[C@@H](NC(=O)[C@H](C)NC(=O)[C@@H](N)CCCCN)CSC(=O)[C@H](C(C)C)NC(=O)[C@H](Cc2ccccc2)NC1=O [7-mer M5dM, K-A-(C-F-dM-F-V)] (H-KACF[dM]FV; thioester 3-C; N-terminus assumed)",71.9,–,–
"CSCC[C@@H]1NC(=O)[C@H](Cc2ccccc2)NC(=O)[C@@H](NC(=O)[C@@H](N)CCCCN)CSC(=O)[C@H](C(C)C)NC(=O)[C@H](Cc2ccccc2)NC1=O [AIP A1K, K-(C-F-M-F-V)] (H-KCFMFV; thioester 2-C; N-terminus assumed)",80,partial agonists with slightly diminished agonistic activity,–
"CSCC[C@@H]1NC(=O)[C@H](Cc2ccccc2)NC(=O)[C@H](NC(=O)[C@@H](N)CCCCN)CSC(=O)[C@H](C(C)C)NC(=O)[C@H](Cc2ccccc2)NC1=O [AIP A1K/C2dC, K-(dC-F-M-F-V)] (H-K[dC]FMFV; thioester 2-C; N-terminus assumed)",10.2,–,–
"CSCC[C@H]1NC(=O)[C@H](Cc2ccccc2)NC(=O)[C@@H](NC(=O)[C@@H](N)CCCCN)CSC(=O)[C@H](C(C)C)NC(=O)[C@H](Cc2ccccc2)NC1=O [AIP A1K/M4dM, K-(C-F-dM-F-V)] (H-KCF[dM]FV; thioester 2-C; N-terminus assumed)",74.1,–,–
"CSCC[C@@H]1NC(=O)[C@H](Cc2ccccc2)NC(=O)[C@@H](NC(=O)[C@@H]2CCCN2)CSC(=O)[C@H](C(C)C)NC(=O)[C@H](Cc2ccccc2)NC1=O [AIP A1P, P-(C-F-M-F-V)] (H-PCFMFV; thioester 2-C; N-terminus assumed)",76.8,partial agonists with slightly diminished agonistic activity,–
"CSCC[C@@H]1NC(=O)[C@H](Cc2ccccc2)NC(=O)[C@@H](NC(=O)[C@@H](N)[C@@H](C)O)CSC(=O)[C@H](C(C)C)NC(=O)[C@H](Cc2ccccc2)NC1=O [AIP A1T, T-(C-F-M-F-V)] (H-TCFMFV; thioester 2-C; N-terminus assumed)",88.1,partial agonists with slightly diminished agonistic activity,–
"CSCC[C@@H]1NC(=O)[C@H](Cc2ccccc2)NC(=O)[C@@H](NC(=O)[C@@H](N)C(C)C)CSC(=O)[C@H](C(C)C)NC(=O)[C@H](Cc2ccccc2)NC1=O [AIP A1V, V-(C-F-M-F-V)] (H-VCFMFV; thioester 2-C; N-terminus assumed)",109,maintained the full activity of the parent AIP with enhanced potency,–
"CSCC[C@@H]1NC(=O)[C@H](Cc2ccccc2)NC(=O)[C@@H](NC(=O)[C@@H](C)N)CSC(=O)[C@H](C(C)C)NC(=O)[C@H](Cc2ccccc2)NC1=O [AIP A1dA, dA-(C-F-M-F-V)] (H-[dA]CFMFV; thioester 2-C; N-terminus assumed)",58.8,–,–
"CSCC[C@@H]1NC(=O)[C@H](Cc2ccccc2)NC(=O)[C@@H](NC(=O)[C@H](C)N)CNC(=O)[C@H](C(C)C)NC(=O)[C@H](Cc2ccccc2)NC1=O [AIP C2Dap, A-(Dap-F-M-F-V)] (H-A[Dap]FMFV; lactam 2-C; N-terminus assumed)",92.9,largely retains the activation activity of the native AIP,10 fold
"CSCC[C@@H]1NC(=O)[C@H](Cc2ccccc2)NC(=O)[C@H](NC(=O)[C@H](C)N)CSC(=O)[C@H](C(C)C)NC(=O)[C@H](Cc2ccccc2)NC1=O [AIP C2dC, A-(dC-F-M-F-V)] (H-A[dC]FMFV; thioester 2-C; N-terminus assumed)",41,lost a substantial amount of agonism activity,three-fold
"CSCC[C@H]1NC(=O)[C@H](Cc2ccccc2)NC(=O)[C@H](NC(=O)[C@H](C)N)CSC(=O)[C@H](C(C)C)NC(=O)[C@H](Cc2ccccc2)NC1=O [AIP C2dC/M4dM, A-(dC-F-dM-F-V)] (H-A[dC]F[dM]FV; thioester 2-C; N-terminus assumed)",35.7,–,–
"CSCC[C@@H]1NC(=O)[C@H](Cc2ccccc2)NC(=O)[C@H](NC(=O)[C@H](C)N)CNC(=O)[C@H](C(C)C)NC(=O)[C@H](Cc2ccccc2)NC1=O [AIP C2dDap, A-(Dap-F-M-F-V)] (H-A[dDap]FMFV; lactam 2-C; N-terminus assumed)",14.3,little or no agr activation,–
"CSCC[C@@H]1NC(=O)[C@H](Cc2c[nH]cn2)NC(=O)[C@@H](NC(=O)[C@H](C)N)CSC(=O)[C@H](C(C)C)NC(=O)[C@H](Cc2ccccc2)NC1=O [AIP F3H, A-(C-H-M-F-V)] (H-ACHMFV; thioester 2-C; N-terminus assumed)",12.4,–,–
"CSCC[C@@H]1NC(=O)[C@H](CC(C)C)NC(=O)[C@@H](NC(=O)[C@H](C)N)CSC(=O)[C@H](C(C)C)NC(=O)[C@H](Cc2ccccc2)NC1=O [AIP F3L, A-(C-L-M-F-V)] (H-ACLMFV; thioester 2-C; N-terminus assumed)",37.6,–,–
"CSCC[C@@H]1NC(=O)[C@H](Cc2c[nH]c3ccccc23)NC(=O)[C@@H](NC(=O)[C@H](C)N)CSC(=O)[C@H](C(C)C)NC(=O)[C@H](Cc2ccccc2)NC1=O [AIP F3W, A-(C-W-M-F-V)] (H-ACWMFV; thioester 2-C; N-terminus assumed)",60.6,–,–
"CSCC[C@@H]1NC(=O)[C@H](Cc2ccc(O)cc2)NC(=O)[C@@H](NC(=O)[C@H](C)N)CSC(=O)[C@H](C(C)C)NC(=O)[C@H](Cc2ccccc2)NC1=O [AIP F3Y, A-(C-Y-M-F-V)] (H-ACYMFV; thioester 2-C; N-terminus assumed)",47.4,–,–
"CSCC[C@@H]1NC(=O)[C@H](Cc2ccccc2)NC(=O)[C@@H](NC(=O)[C@H](C)N)CSC(=O)[C@H](C(C)C)NC(=O)[C@H](Cc2c[nH]cn2)NC1=O [AIP F5H, A-(C-F-M-H-V)] (H-ACFMHV; thioester 2-C; N-terminus assumed)",7.13,–,–
"CSCC[C@@H]1NC(=O)[C@H](Cc2ccccc2)NC(=O)[C@@H](NC(=O)[C@H](C)N)CSC(=O)[C@H](C(C)C)NC(=O)[C@H](CC(C)C)NC1=O [AIP F5L, A-(C-F-M-L-V)] (H-ACFMLV; thioester 2-C; N-terminus assumed)",64.8,–,–
"CSCC[C@@H]1NC(=O)[C@H](Cc2ccccc2)NC(=O)[C@@H](NC(=O)[C@H](C)N)CSC(=O)[C@H](C(C)C)NC(=O)[C@H](Cc2c[nH]c3ccccc23)NC1=O [AIP F5W, A-(C-F-M-W-V)] (H-ACFMWV; thioester 2-C; N-terminus assumed)",85.8,–,–
"CSCC[C@@H]1NC(=O)[C@H](Cc2ccccc2)NC(=O)[C@@H](NC(=O)[C@H](C)N)CSC(=O)[C@H](C(C)C)NC(=O)[C@H](Cc2ccc(O)cc2)NC1=O [AIP F5Y, A-(C-F-M-Y-V)] (H-ACFMYV; thioester 2-C; N-terminus assumed)",44.4,–,–
